Measurements: article PMC8279981, “A first-in-human, phase 1 study of the NEDD8 activating enzyme E1 inhibitor TAS4464 in patients with advanced solid tumors” (Investigational New Drugs, 2021)

Tests used:
[1] = Plasma pharmacokinetics of TAS4464 in patients; type: in vivo, human
Protocol: (§1) The PK endpoints included maximum plasma concentration (Cmax), area under the concentration–time curve from time zero up to the last observable concentration (AUC0-last) and plasma accumulation of TAS4464 after multiple doses. PK parameters were evaluated on Day 1 of Cycle 1 and Day 15 of Cycle 1 in the weekly dosing cohort, as well as on Day 1 of the lead-in period and Day 1 of Cycle 1 in the weekly with lead-in dosing cohort. The evaluation of the relationship between solute carrier organic anion transporter family member 1B1 (SLCO1B1) genetic polymorphisms and PK (i.e., the mean and individual clearance [CL] and volume of distribution at steady-state [Vdss] by each OATP1B1 phenotype) was assessed as the PGx analysis endpoint.
The analysis populations included in the study are summarized in the Supplementary Appendix. DLTs were recorded by incidence and 95% confidence intervals (CI). Median PFS and 95% CIs were calculated using Kaplan–Meier methodology. Best overall response was tabulated, and the ORR and DCR with 95% CIs were calculated by dose level. PK parameters were evaluated using non-compartmental methods. For the pharmacodynamic parameter of cullin-NEDD8 in PBMC, summary statistics and a scatter plot of the percentage change from baseline were produced. Missing data were not imputed. […] SAS software v9.4 (SAS Institute Inc., Cary NC, USA) was used for all statistical processing.

[2] = tested on: OATP1B1; assay: Pharmacogenomics: SLCO1B1 polymorphisms versus PK; type: in vivo, human; details: phenotype assigned by SLCO1B1 genotypes; data not shown
Protocol: as §1

[3] = tested on: cullin-NEDD8 complexes in PBMC; assay: Cullin-NEDD8 protein in PBMC by ELISA; type: in vivo, human
Protocol: (§2) Assessment of pharmacodynamics included evaluation of cullin-NEDD8, p27^Kip1 protein expression, and cytokines in peripheral blood samples. Expression of cullin-NEDD8 protein in peripheral blood mononuclear cells (PBMC) was analyzed using an enzyme-linked immunosorbent assay (ELISA). For the weekly dosing cohorts, changes from baseline in cullin-NEDD8 complexes in the PBMC on Day 1 and Day 2 of Cycle 1 as measured by ELISA were evaluated. For the weekly dosing with lead-in period cohorts, changes from baseline in cullin-NEDD8 complexes on Day 2 were evaluated. Expression of p27^Kip1 protein (cyclin-dependent kinase inhibitor 1B), a substrate of CRL, was determined by immunohistochemistry (IHC). p27^Kip1 IHC was performed on biopsy tumor specimens collected at baseline and Day 2 of Cycle 1, and their staining intensities were assessed using H-Scoring, with the scores compared between baseline and Day 2 of Cycle 1. […]

[4] = tested on: 10 cytokines in peripheral blood; assay: Cytokines in peripheral blood (Luminex); type: in vivo, human
Protocol: as §2

[5] = tested on: hematologic and solid tumor xenograft models; details: cited from earlier work
[6] = tested on: dog; parameters: method as in unpublished data; details: TAS4464 without a N,N-dimethylacetamide group; ref unpublished data; cited from earlier work
[7] = parameters: method as in unpublished data; details: TAS4464 combined with TNF-α; ref unpublished data; cited from earlier work
[8] = plasma, multiple doses, data not shown

SMILES: CCOc1cccc(F)c1C#Cc1cn([C@@H]2O[C@H](CNS(N)(=O)=O)[C@@H](O)[C@H]2O)c2ncnc(N)c12 [TAS4464]
- dose dependence of Cmax and AUC ([1]; dose range of 10–56 mg/m^2): generally increased with increasing dose
- accumulation ratio of AUC0-last [R (AUC0-last)] [1, 8]: ~1.0
- accumulation ratio of Cmax [R (Cmax)] [1, 8]: ~1.0
- mean and individual CL and Vdss by OATP1B1 phenotype [2]: no obvious differences were observed
- cullin-NEDD8 complex measurements in PBMC versus baseline ([3]; Day 1 of Cycle 1, no dose-dependency): lower than those at baseline in all patients
- cullin-NEDD8 complex measurements in PBMC versus baseline ([3]; Day 2 of Cycle 1, dose dependency not observed): lower than those at baseline, with the exception of two patients
- expression levels of the 10 cytokines in peripheral blood ([4]; five patients, weekly dosing with lead-in period cohort): no changes in the expression levels
- peak expression of IL-1β, IFNγ, IL-12p40, IL-12p70, IL-17A, IL-1α and IL-2 versus baseline ([4]; one patient, weekly dosing with lead-in level 3, Day 3 of Cycle 1): more than four times higher than at baseline
- antitumor effects ([5]; several hematologic and solid tumor xenograft models): promising antitumor effects
- weight loss ([5]; xenograft models): without notable weight loss
- toxic liver findings [6]: toxic liver findings were not observed
- abnormal liver function tests [7]: Abnormal liver function tests were also observed
